Earlier results as cited in the CATMoS acute toxicity set (Mansouri et al. 2021).
Several values for one entry are separate records, joined by “and”; a condition that tells them apart may be missing. Identical values can stand only once.

Experiment: rat acute oral toxicity
Conditions: in vivo
Source text: […]The data set underlying the modeling effort for this project was initially compiled by NICEATM and U.S. EPA’s CCTE. Briefly, LD50 data were collected from rat acute oral systemic toxicity tests, including limit tests, ranges/confidence intervals, and discrete LD50 values. The full data set included 21,200 LD50 entries for 15,688 substances. […] Data were reviewed to ensure that LD50 values with obvious errors in the extracted data such as unit conversion errors (e.g., comma and decimal separator misplacements) were either fixed or removed. After this review, 16,209 LD50 values remained. Many of the chemicals represented had multiple LD50 entries, requiring that a single representative value per Chemical Abstracts Service Registry Number (CASRN) identifier be defined to facilitate modeling efforts. Based on ATWG feedback and to define the representative LD50 as a protective value while accounting for the distribution across multiple LD50s, the median of the lowest quartile was computed using only discrete LD50 values (omitting limit test data and range and confidence interval data). A detailed summary of the data compilation is available online on the NICEATM webpage dedicated to the collaborative modeling project (NTP 2020).
[…][…] For categorical designations, limit test and range/confidence interval LD50 data were integrated wherever possible. As such, the number of chemicals with end point values/calls varies across the modeling end points (Table 3) based on whether chemicals had representative LD50 values and/or other data. If a chemical had both, the representative value was used to determine categorical calls rather than limit test data. Some data were useable only for certain end points and categories depending on the thresholds. For example, ranges that spanned multiple hazard categories were considered only for the binary (very toxic/nontoxic) end points and omitted from rendering a determination for hazard category assignment.
[…]The final data set comprising 11,992 chemicals was split into training and evaluation sets […], respectively. This process was performed semirandomly by ordering chemicals based on the five end points (categorical and continuous LD50 values) and partitioning every fourth record into the evaluation set accordingly. This approach was taken to ensure an equivalent distribution of the LD50 values and the different hazard categories between the training and the evaluation sets without supervised sampling of the chemicals based on structures (Figure 1A). The sources of the chemical structures were also kept equivalent between the two sets, with chemical structures obtained from DSSTox, being the highest quality, representing over 75% of each set (Figure 1B).

Compared with `CCCNC(=O)c1sc(-c2cc(OC)c(OC)c(OC)c2)nc1C`, `CCOC(=O)C1=C(COCCOCCN)NC(C)=C(C(=O)OC)[C@@H]1c1cccc(Cl)c1Cl` is 41-fold lower in LD50: 5600 mg/kg for the first, 136 mg/kg for the second.

First: ClCNc1cc(Cl)ccc1Oc1ccc(Cl)cc1
Second: CN1CCC(OC(=O)COc2ccc(Cc3ccc(Cl)cc3)cc2)CC1
The LD50 of the first is 2.6-fold lower: 726 mg/kg for the first, 1900 mg/kg for the second.

Compared with `CCCCC(CC)COP(=O)(O)O` (stereo not given), `CCCC(CCC)C(N)=O` is 3.9-fold lower in LD50: 3450 mg/kg for the first, 890 mg/kg for the second.

First: CC1=CC(=O)C(C)=C(C)C1=O
Second: CN(CCn1cnc2c1c(=O)n(C)c(=O)n2C)C1CCCCC1
The LD50 of the first is 14-fold lower: 200 mg/kg for the first, 2880 mg/kg for the second.

First: Clc1ccccc1C(c1ccccc1)(c1ccccc1)n1ccnc1
Second: Cc1ccccc1C(O)(c1ccccc1)C(C)CN(C)C (stereo not given)
The LD50 of the first is 3.8-fold higher: 708 mg/kg for the first, 185 mg/kg for the second.

First: Cc1cccc(C)c1N(COC(C)C)C(=O)CCl
Second: CCOC(C1=NCC(C)(CC)CN1)c1ccc(Cl)cc1 (stereo not given)
The LD50 of the first is 8.9-fold higher: 975 mg/kg for the first, 110 mg/kg for the second.

Going from `CC(CC(=O)O)CC(C)(C)C` (stereo not given) to `CC(=O)OC(C)(C)C1CC=C(C)CC1` (stereo not given), the LD50 rises from 1160 mg/kg to 5080 mg/kg (4.4-fold).

`CCOP(=O)(OCC)Oc1ccc(Cl)cc1Cl` and `CCOP(=S)(OCC)Oc1ccc(Cl)c([N+](=O)[O-])c1` are the same in LD50: 100 mg/kg for the first, 100 mg/kg for the second.

Compared with `O=S(=O)(O)Oc1ccc(C(c2ccc(OS(=O)(=O)O)cc2)c2ccccn2)cc1`, `O=[n+]1c2ccccc2n([O-])c2ccc3ccccc3c21` is 2.4-fold lower in LD50: 11300 mg/kg for the first, 4620 mg/kg for the second.

`CCc1c2c(nc3ccc(OC(=O)N4CCC(N5CCCCC5)CC4)cc13)-c1cc3c(c(=O)n1C2)COC(=O)[C@]3(O)CC` and `COc1ccc2c(c1)N(CCC1CCCCN1C)c1ccccc1S2` (stereo not given) are within 1.5-fold of each other in LD50: 867 mg/kg for the first, 1130 mg/kg for the second.

Compared with `CN(C)c1ccc(SC#N)cc1`, `CCOc1ccc(C=O)cc1` is 4.2-fold higher in LD50: 500 mg/kg for the first, 2100 mg/kg for the second.

Going from `OC1(c2ccc(Cl)cc2)CCNCC1` to `OC1(c2ccc(Cl)cc2)c2ccccc2C2=NCCN21` (stereo not given), the LD50 falls from 465 mg/kg to 36.3 mg/kg (13-fold).

Compared with `CC(C)(OO)c1ccccc1`, `CC(=Cc1ccccc1)CC(=O)N1CCOCC1` is 2.6-fold higher in LD50: 382 mg/kg for the first, 1000 mg/kg for the second.

`O=C(O)C(Cc1cc(I)c(O)c(I)c1)c1ccccc1` (stereo not given) and `O=c1[nH]nc(-c2ccccc2)c2conc12` are within 1.5-fold of each other in LD50: 1100 mg/kg for the first, 1000 mg/kg for the second.

Going from `CCOC=C(C(=O)OCC)C(=O)OCC` to `CCOC(=O)CS`, the LD50 falls from 925 mg/kg to 178 mg/kg (5.2-fold).

`CCN(CC)C(=O)c1ccccc1O` and `CC(=O)C(c1ccccc1)N1CCN(CCOc2ccccc2)CC1` (stereo not given) are within 1.5-fold of each other in LD50: 580 mg/kg for the first, 800 mg/kg for the second.

Going from `ClCC=C(Cl)CCl` to `NS(=O)(=O)CCNC(=O)N(CCCl)N=O`, the LD50 falls from 224 mg/kg to 40 mg/kg (5.6-fold).

Compared with `N#CC(C#N)=C(C#N)C#N`, `CC(=O)OC(C(Cl)(Cl)Cl)P(=O)(Oc1ccccc1)Oc1ccccc1` (stereo not given) is 660-fold higher in LD50: 5 mg/kg for the first, 3280 mg/kg for the second.

Compared with `CN1CC[C@@]23CCCC[C@@H]2[C@@H]1Cc1ccc(O)cc13`, `C[C@]12CCC(=O)C=C1CC[C@@H]1[C@@H]2CC[C@@]2(C)[C@H]1CC[C@]2(C)O` is 2.3-fold higher in LD50: 1100 mg/kg for the first, 2500 mg/kg for the second.

`Cc1ccc2c(c1)C(N1CCN(C)CC1)=Nc1ccccc1S2` and `CC(=O)c1ccc2c(c1)N(CCCN1CCN(C)CC1)c1ccccc1S2` are within 1.5-fold of each other in LD50: 934 mg/kg for the first, 650 mg/kg for the second.

Going from `FC(F)(F)c1nc2c(Br)cccc2[nH]1` to `Cc1ccc2[nH]c(C(F)(F)F)nc2c1Br`, the LD50 rises from 28 mg/kg to 64 mg/kg (2.3-fold).

First: Cc1ccc([N+](=O)[O-])cc1S(=O)(=O)Cl
Second: CC(=O)OCC1=C(C(=O)O)N2C(=O)[C@@H](NC(=O)CSc3ccncc3)[C@H]2SC1
The LD50 of the first is 2.2-fold lower: 7470 mg/kg for the first, 16400 mg/kg for the second.

Going from `COCN(C)N=O` to `CCCCCCCCCc1ccc(OCCO)cc1`, the LD50 rises from 700 mg/kg to 2100 mg/kg (3-fold).

Compared with `C1COCCOCCOCCOCCO1`, `O=C(O)CC1(CO)CCCCC1` is 70-fold lower in LD50: 1410 mg/kg for the first, 20 mg/kg for the second.

For `O=C1CCc2cc(C(O)CCCN3CCN(c4cccc(Cl)c4)CC3)ccc2N1` (stereo not given), the LD50 is given as 500 mg/kg.

For `C[N+]1(C)[C@@H]2CC[C@H]1C[C@@H](OC(=O)C(CO)c1ccccc1)C2` (stereo not given in full), the LD50 is given as 1050 mg/kg and 1900 mg/kg.
